Data on 9 molecules can be found in patent publication EP4810493A1, “HETEROCYCLIC CARBONYL DERIVATIVE MODULATOR, PREPARATION METHOD THEREFOR, AND USE THEREOF” (Shanghai Hansoh Biomedical Co., Ltd., priority 2023, dated 2025).

A short description of data set [1]: Pharmacokinetic determination in Balb/c mice. The settings on record: mouse, in vivo, po, male Balb/c mice, p.o. 5 mg/kg; for MRT inf: read-out: MRT 0-∞. How it is done:
To investigate the pharmacokinetic behaviours of the example compounds in both plasma and brain of Balb/c mice (test animals) following oral administration at a dose of 5 mg/kg.
(§1) 2.1 Test drugs: The example compounds of the present invention, made in house.
2.2 Test animals: Balb/c Mouse, male.
24 Balb/c mice, male; p.o. respectively at a dose of 5 mg/kg and an administration volume of 10 mL/kg after the mice were fasted overnight.
(§2) Formulation of a drug for oral administration: 0.5% CMC-Na (1% Tween 80).
(§3) 0.50 g of sodium carboxymethyl cellulose (CMC-Na, viscosity: 800-1200 Cps) was weighed and dissolved in 99 mL of purified water, and 1 ml of Tween 80 was added. The components were mixed thoroughly under stirring to form a clear solution.
The example compound was weighed into a 4-mL glass vial, 2.4 mL of the solution was added, and the mixture was subjected to ultrasound treatment for 10 minutes to obtain a homogeneous suspension with a concentration of 0.5 mg/mL.
(§4) After the test animals were euthanised by CO2, blood samples were collected from the heart and brain tissues were harvested at 0.25 h, 0.5 h, 1 h, 2 h, 4 h, 6 h, 8 h, and 24 h post-dose. Blood was placed in EDTA-2K tubes, and centrifuged at 6000 rpm for 6 min at 4°C to separate the plasma. Brain tissues were rinsed with pre-cold PBS, blotted dry, and weighed. Both plasma and brain samples were stored at -80°C. The animals were fed 4 h after administration.
• 1) 40 uL of plasma sample was precipitated with 160 uL of acetonitrile, mixed, and centrifuged at 3500 × g for 5-20 min. Brain tissues were diluted, homogenised and centrifuged. • 2) 100 uL of the treated supernatant solution was taken for LC/MS/MS analysis to determine the concentration of the test compounds.
(§5) • Liquid phase conditions: Shimadzu LC-20AD pump • Mass spectrometry conditions: AB Sciex API 4000 mass spectrometer • Chromatographic column: Phenomenex Gemiu 5 um C18 50 × 4.6 mm • Mobile phase: solution A: 0.1% formic acid in water, solution B: acetonitrile • Flow rate: 0.8 mL/min • Elution time: 0-4.0 min, with eluents as follows:
(§6) The main pharmacokinetic parameters were calculated using WinNonlin 8.1.

Data set [2] in a line: Pharmacokinetic determination in SD rats. The conditions noted are these: rat, in vivo, po, male SD rats, p.o. 5 mg/kg; for MRT inf: read-out: MRT 0-∞. How it is done:
To investigate the pharmacokinetic behaviours of the example compounds in both plasma and brain of SD rats (test animals) following oral administration at a dose of 5 mg/kg.
as §1
2.2 Test animals: SD Rat, male.
24 SD Rats, male; p.o. respectively at a dose of 5 mg/kg and an administration volume of 10 mL/kg after the rats were fasted overnight.
as §2, §3
The example compound was weighed into a 100 mL glass vial, 80 mL of the solution was added, and the mixture was subjected to ultrasound treatment for 10 minutes to obtain a homogeneous suspension with a concentration of 0.5 mg/mL.
as §4
• 3) 40 uL of plasma sample was precipitated with 160 uL of acetonitrile, mixed, and centrifuged at 3500 × g for 5-20 min. Brain tissues were diluted, homogenised and centrifuged. • 4) 100 uL of the treated supernatant solution was taken for LC/MS/MS analysis to determine the concentration of the test compounds.
as §5, §6

The next data set has as its target T1, M4 receptor (Homo sapiens, UniProt P08173).
T1 construct: expressed in transfected cells
T1 sequence (P08173 1-479): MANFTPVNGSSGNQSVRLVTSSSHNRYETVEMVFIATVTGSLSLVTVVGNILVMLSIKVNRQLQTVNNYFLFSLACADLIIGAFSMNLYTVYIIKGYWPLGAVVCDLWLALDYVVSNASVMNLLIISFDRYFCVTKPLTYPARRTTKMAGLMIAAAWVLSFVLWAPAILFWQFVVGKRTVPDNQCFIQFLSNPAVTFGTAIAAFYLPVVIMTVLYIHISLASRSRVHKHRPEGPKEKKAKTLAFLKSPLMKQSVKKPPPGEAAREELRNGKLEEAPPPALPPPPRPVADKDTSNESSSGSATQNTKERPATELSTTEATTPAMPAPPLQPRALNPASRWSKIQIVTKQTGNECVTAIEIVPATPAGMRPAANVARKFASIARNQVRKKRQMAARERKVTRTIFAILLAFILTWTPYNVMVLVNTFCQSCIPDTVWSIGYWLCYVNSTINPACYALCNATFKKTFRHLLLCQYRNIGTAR
As to the kind of experiment: Calcium flux (FLIPR) potentiation assay in cells stably expressing M4 receptor. It counts as cell-based. In short, it runs like this:
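CHO-K1 cells co-expressing Gα15, loaded with Calcium 6 dye 1 h at room temperature, preincubated 2 min with compound ([…]), then challenged with acetylcholine at EC20. Peak fluorescence expressed as % activation between DMSO and ACh EC100 controls.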

The conditions of data set [3]: six weeks of dosing, cited from earlier work.
The conditions of data set [4]: in vivo; cited from earlier work.
[5] abbreviates: CHO-K1/M4/Gα15 cells, potentiation of acetylcholine (EC20) calcium flux, read-out: M4 FLIPR EC50.

Where two headings read alike, the source gives them in different places.

As usually defined, the AUC(0-inf) is total exposure, with the tail of the curve extrapolated. Low readings indicate less exposure, high ones more exposure. A word on the Cmax: it is the peak of the concentration-time curve. One may read the Tmax as the time at which the peak concentration occurs. Regarding `Cc1c2c(c3ncnn3c1C)CN(C(=O)OC1CN(c3ccnc(C(F)F)c3)C1)C2` [Example 122], in data set [1], the AUC(0-inf) was 6130 ng·h/mL, the Cmax stood at 1550 ng/mL, the Tmax came to 0.5 h and the MRT inf turned out to be 2.6 h. Further, in data set [2], the AUC(0-inf) amounted to 34800 ng·h/mL, the concentration peaked (Cmax) at 3110 ng/mL, the Tmax turned out to be 2 h and the MRT inf is 5.8 h.

As a reminder, the EC50 is the concentration at which the effect is half-maximal. As to `Cc1c2c(c3ncnn3c1C)CN(C(=O)CC1CN(c3ncc(C(F)(F)F)cn3)C1)C2` [Example 144, 1-(5,6-Dimethyl-7,9-dihydro-8H-pyrrolo[3,4-c][1,2,4]triazolo[1,5-a]pyridin-8-yl)-2-(1-(5-(trifluoromethyl)pyrimidin-2-yl)azetidin-3-yl)ethan-1-one], in data set [1], the AUC(0-inf) stood at 4790 ng·h/mL, the Cmax worked out at 1890 ng/mL, the time of peak concentration (Tmax) was determined as 0.5 h and the MRT inf turned out to be 1.4 h. The 50% effective concentration (EC50) on M4 receptor (setting [5]) was determined as 85.8 nM. For the same molecule, in data set [2], the AUC(0-inf) is 11000 ng·h/mL, the Cmax came out at 1710 ng/mL, the Tmax is 2 h and the MRT inf came to 4.6 h.

On to `Cc1cc(C)c2c(n1)CN(C(=O)CC1CN(c3ccnc(C(F)(F)F)c3)C1)C2` [CVL-231], for which the “mean reduction in the Positive and Negative Syndrome Scale (PANSS) total score from baseline” value in data set [3] (20 mg twice daily) is recorded as 17.9 points; in data set [3] (30 mg once daily), 19.5 points.

For `Cc1cn2nc(N3CC(OC(=O)N4Cc5c(C)c(C)n6ncnc6c5C4)C3)ccc2n1` [Example 105], in data set [1], the AUC(0-inf) came out at 10200 ng·h/mL, the highest level (Cmax) was 1570 ng/mL, the time to peak (Tmax) stood at 0.5 h and the MRT inf turned out to be 4.3 h. On M4 receptor, the EC50 was 19.9 nM. Moreover, in data set [2], the AUC(0-inf) is 16300 ng·h/mL, the Cmax was determined as 2680 ng/mL, the Tmax is 1 h and the MRT inf amounted to 4.3 h.

Turning to `Cc1c2c(c3ncnn3c1C)CN(C(=O)OC1CN(c3ccnc(OC(F)F)c3)C1)C2` [Example 123], in data set [1], the area under the curve AUC(0-inf) was found to be 4160 ng·h/mL, the concentration peaked (Cmax) at 1040 ng/mL, the Tmax stood at 0.5 h and the MRT inf came to 3.8 h. For the same molecule, in data set [2], the AUC(0-inf) came to 12200 ng·h/mL, the Cmax is 2530 ng/mL, the Tmax worked out at 2 h and the MRT inf was 3.5 h.

Consider `Cc1c2c(c3ncnn3c1C)CN(C(=O)OC1CN(c3ccnc(C(F)(F)F)c3)C1)C2` [Example 32, 1-(2-(Trifluoromethyl)pyridin-4-yl)azetidin-3-yl 5,6-dimethyl-7,9-dihydro-8H-pyrrolo[3,4-c][1,2,4]triazolo[1,5-a]pyridine-8-carboxylate], for which, in data set [1], the AUC(0-inf) is 7370 ng·h/mL, the highest level (Cmax) was 2560 ng/mL, the Tmax worked out at 0.5 h and the MRT inf was 2.5 h. For the same molecule, on M4 receptor (setting [5]), the concentration for a half-maximal effect (EC50) amounted to 72.4 nM. Also, in data set [2], the AUC(0-inf) is 17500 ng·h/mL, the Cmax came to 4520 ng/mL, the Tmax is 2 h and the MRT inf came out at 2.7 h.

In the case of `Cc1nnc2sc(C(=O)NCc3ccc(S(=O)(=O)C(F)(F)F)cc3)c(N)c2c1C` [VU0467154], in data set [4], the “learning deficits induced by the NMDA receptor antagonist MK-801” value is reported as “improved learning deficits”.

For the molecule `Cc1c2c(c3ncnn3c1C)CN(C(=O)CC1CN(c3ccnc(OC(F)F)c3)C1)C2` [Example 52], in data set [1], the AUC(0-inf) amounted to 2540 ng·h/mL, the Cmax was 1950 ng/mL, the Tmax was 0.25 h and the MRT inf is 1.2 h. Besides, the EC50 on M4 receptor (setting [5]) turned out to be 13.9 nM. Further, in data set [2], the area under the curve AUC(0-inf) was found to be 10800 ng·h/mL, the highest level (Cmax) was 2450 ng/mL, the Tmax was determined as 2 h and the MRT inf worked out at 2.6 h.

Take `COc1cc(N2CC(CC(=O)N3Cc4c(C)c(C)n5ncnc5c4C3)C2)c(Cl)cn1` [Example 147]: the EC50 on M4 receptor (setting [5]) was 40.9 nM. In data set [2], the AUC(0-inf) is 3260 ng·h/mL, the highest level (Cmax) was 914 ng/mL, the time of peak concentration (Tmax) was 1 h and the MRT inf stood at 2.4 h.
